Source: publication PMC9951879, “Synthesis of New Shogaol Analogues as NRF2 Activators and Evaluation of Their Anti-Inflammatory Activity, Modes of Action and Metabolic Stability” (Antioxidants, 2023)
Like-named read-outs stand apart in the source and are kept apart here.

How the values were obtained:
TNF-α = TNF-α ELISA in LPSEc-stimulated BV-2 cells; assay type: cell-based, mouse; conditions: LPSEc 200 ng/mL; for inhibition at 1 µM: Mus musculus, BV-2, 1 μM, read-out: percentage of TNF-α inhibition
Protocol: The anti-inflammatory activity of the STCs was determined in E. coli lipopolysaccharide (LPSEc; Sigma Aldrich, USA)-induced inflammation in NRF2-proficient and NRF2 siRNA-transfected mouse microglial (BV-2) cells. The NRF2 was silenced in BV-2 cells using NRF2 siRNA (Santa Cruz Biotechnology, Dallas, TX, USA) in Opti-MEM transfection medium (Thermo Fisher Scientific, USA) using Lipofectamine^TM LTX reagent with PLUS^TM reagent (Thermo Fisher Scientific, USA) following the manufacturer’s protocol and reported method. The cells (5 × 10^5 cells/well) were allowed to form a monolayer by incubating them for 24 h and then adding LPSEc (200 ng/mL) for 4 h. The STCs (1 µM) were then added and incubated for another 20 h. The nitric oxide (NO) level in cell supernatant was determined using the Griess reagent kit (Thermo Fisher Scientific, USA). The levels of proinflammatory cytokines (IL-1β, IL-6, IFN-γ, and TNF-α) in cell supernatant solutions were determined using commercially available ELISA kits (Abcam, Cambridge, UK). The cell pellets were lysed using Cell Lysis buffer (Thermo Fisher Scientific, Waltham, MA, USA) following the manufacturer’s instructions. The supernatant solution in the wells was replaced with PBS, and cells were detached by scraping, washed with PBS, and centrifuged to collect the cell pellet. The cell pellet was lysed on ice in a cell lysis buffer for half an hour, vortexing at regular intervals. The cell lysate was centrifuged at 15,000 rpm for 15 min at 4 °C. The clear lysate was stored at −80 °C until further use. The protein concentration was determined using Bradford’s assay kit (Thermo Fisher Scientific, USA) following the manufacturer’s instructions. The expression of COX-2, NF-κB p65, NRF2, and HO-1 in cell lysates was determined using commercially available ELISA kits (Abcam, St, Louis, Missouri, USA) following the manufacturer’s protocol. In addition, the thiol content was determined using a thiol quantification assay kit (Abcam, USA).

GSTA4 = assay: qPCR gene expression in Hepa1c1c-7 cells: GSTA4; assay type: cell-based, mouse; conditions: 1 μM, 48 h, Hepa-1c1c7 cells
Protocol: (§1) Hepa1c1c-7 cells were treated with STCs (1 μM) for 48 h, and the total RNA was isolated using QIAzol®lysis reagent (Qiagen, Germany). Next, cDNA was synthesised using the ReverTra Ace® qPCR RT Master Mix Kit (Toyobo Research Reagents, Osaka, Japan). Quantitative PCR was performed using THUNDERBIRD^TM Next SYBR® qPCR Mix (Toyobo Research Reagents, Osaka, Japan) in CFX96 Touch Real-Time PCR Detection System (Bio-Rad Laboratories, San Jose, CA, USA). The genes tested and the respective primers (purchased from Integrated DNA Technologies, Coralville, IA, USA) used in the study are shown in Table 1. β-actin was used as a reference gene for the normalisation of target gene expression. The 2^−ΔΔCt method was used to measure the relative expression of target genes.

HMOX1 = assay: qPCR gene expression in Hepa1c1c-7 cells: HMOX1; assay type: cell-based, mouse; conditions: 1 μM, 48 h, Hepa-1c1c7 cells
Protocol: as §1

NRF2 = assay: qPCR gene expression in Hepa1c1c-7 cells: NRF2; assay type: cell-based, mouse; conditions: 1 μM, 48 h, Hepa-1c1c7 cells
Protocol: as §1

GPX2 = assay: qPCR gene expression in Hepa1c1c-7 cells: GPX2; assay type: cell-based, mouse; conditions: 1 μM, 48 h, Hepa-1c1c7 cells
Protocol: as §1

[1] = Liver microsomal stability, mouse; assay type: in vitro ADME; conditions: mouse liver microsomes, 1 μM (verapamil 0.5 μM)
Protocol: The liver microsomes of humans, rats, and mice were purchased from Merck (human, #M0567; rat, #M9066; mouse, #M9441). The metabolic stability of 6-shogaol and STCs (1 μM effective concentration; 5 μL) was mixed with liver microsomes (0.5 mg mL^−1; 445 μL) in a microcentrifuge tube. Verapamil (0.5 μM) was used as the positive control. The microsome and compound mixture were shaken on a plate shaker for 5 min to ensure homogeneity. NADPH (1 mM; 50 μL) was added to the mixture to start the metabolic reaction. The reaction mixture was incubated at 37 °C for 0, 3, 6, 15, 30, 45, and 60 min. The mixture (20 μL) was sampled and quenched with 180 μL of acetonitrile with internal standard (Donepezil 50 ng/mL) to terminate the metabolic reaction at each time point. Ultrapure water (80 μL) was added, and contents in the microcentrifuge tubes were centrifuged at 3800 rpm at 4 °C for 10 min. […] Each set of experiments was repeated three times in human, rat, and mouse liver microsomes. The concentration of the compounds versus time was plotted to determine the elimination rate constant (Kel). The intrinsic clearance (Clint) and half-life (t1/2) were calculated using the following equations.

GSK-3β = target: T1, GSK-3β (Homo sapiens, UniProt P49841); assay: GSK-3β kinase ADP-Glo assay; assay type: biochemical; conditions: ATP 25 μM, read-out: IC50, GSK-3β enzyme activity
T1 construct: purchased Promega
Protocol: The effect of STCs on GSK-3β activity was determined using GSK-3β kinase enzyme (Promega, WI, USA) and ADP-Glo^TM kinase assay (Promega, USA) following the manufacturer’s protocol and reported method. The STCs were dissolved in the kinase buffer to prepare different concentrations (10, 1, 0.1, 0.01, and 0.001 μM). One microliter of the test compounds was added to each well (384 well plate), followed by the addition of 2 μL of GSK-3β kinase (1 ng), 2 μL of the GSK-3β substrate (0.4 μg), and 2 μL of the ATP (25 μM), and incubated for 60 min. Then, 5 μL of ADP-Glo^TM reagent was added and incubated further for 40 min. Then 10 μL of kinase detection reagent was added and incubated for 30 min. The luminescence was recorded using a SpectraMax®L microplate reader (Molecular Devices, San Jose, CA, USA). The IC50 (concentration of the test compound required to produce half-maximal […]) from dose-response curves using non-linear regression analysis using GraphPad Prism (9.5.0; San Diego, CA, USA) software.

[2] = 1 μM, NRF2-proficient BV-2 cells

T1 sequence (P49841 whole entry): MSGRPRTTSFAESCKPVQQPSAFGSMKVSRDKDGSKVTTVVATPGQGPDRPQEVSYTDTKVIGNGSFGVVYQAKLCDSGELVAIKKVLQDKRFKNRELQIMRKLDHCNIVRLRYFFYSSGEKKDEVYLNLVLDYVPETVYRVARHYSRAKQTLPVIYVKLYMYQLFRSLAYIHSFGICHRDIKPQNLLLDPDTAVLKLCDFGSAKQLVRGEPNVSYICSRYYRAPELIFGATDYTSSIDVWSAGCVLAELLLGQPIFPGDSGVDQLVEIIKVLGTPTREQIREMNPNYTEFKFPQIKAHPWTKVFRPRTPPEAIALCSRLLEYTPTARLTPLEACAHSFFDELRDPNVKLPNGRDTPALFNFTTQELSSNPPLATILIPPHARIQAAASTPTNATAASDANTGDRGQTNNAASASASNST

Structure (SMILES)	TNF-α level (TNF-α; [2])	TNF-α level (TNF-α; 1 μM, NRF2-silenced BV-2 cells)	percentage of TNF-α inhibition (TNF-α; 1 μM, NRF2-silenced BV-2 cells)	inhibition at 1 µM (TNF-α; NRF2-proficient BV-2 cells)	GSTA4 gene expression foldchange (compared to control) (GSTA4)	HMOX1 gene expression foldchange (compared to control) (HMOX1)	NRF2 gene expression foldchange (compared to control) (NRF2)	GPX2 gene expression foldchange (compared to control) (GPX2)	Clint [1]	half-life at 1 μM [1]	IC50 (GSK-3β)	inhibition at 1 µM (TNF-α; NRF2-silenced BV-2 cells)
CCCCC/C=C/C(=O)CCc1ccc(O)c(OC)c1 [6-shogaol, reference compound]	1734.00 ± 51.00 pg/mL	3113.00 ± 55.34 pg/mL	no inhibition	40.4%	1.53 ± 0.02	1.34 ± 0.05	1.26 ± 0.05	1.63 ± 0.06	14.32 ± 1.51 mL/min/g liver	5.08 min	420 ± 130 nM	
COc1cc(CCC(=O)/C=C/c2cc(-c3ccccc3)cs2)ccc1O [STC5, (E)-5-(4-Hydroxy-3-methoxyphenyl)-1-(4-phenylthiophen-2-yl)pent-1-en-3-one]	850.00 ± 77.90 pg/mL	2581.00 ± 51.00 pg/mL		70.8%	2.52 ± 0.03	3.01 ± 0.10	3.21 ± 0.08	3.25 ± 0.11	6.42 ± 1.52 mL/min/g liver	11.3 min	50 ± 1 nM	17%
COc1cc(CCC(=O)/C=C/c2ccc([N+](=O)[O-])s2)ccc1O [STC8, (E)-5-(4-Hydroxy-3-methoxyphenyl)-1-(5-nitrothiophen-2-yl)pent-1-en-3-one]	1751.00 ± 77.90 pg/mL	3130.33 ± 27.47 pg/mL							11.26 ± 2.69 mL/min/g liver	6.46 min	870 ± 90 nM	
